Laboratory results from PMC9289467, “A Novel Multifunctional 5,6-Dimethoxy-Indanone-Chalcone-Carbamate Hybrids Alleviates Cognitive Decline in Alzheimer’s Disease by Dual Inhibition of Acetylcholinesterase and Inflammation” (Frontiers in Aging Neuroscience, 2022).

Assays:
[1] = system: hippocampal gene expression; test: Bulk RNA-seq of hippocampal tissues; assay type: in vivo, APP/PS1 mice
Experimental: (§1) APP/PS1 mice of ages 6 months were randomly divided into vehicle (APP/PS1, n = 10) and treatment groups (AP5, n = 10), which were intragastrically administered with AP5 (40 mg/kg) once daily for consecutive 5 months. AP5 was dissolved in distilled water containing 1% sodium carboxymethyl cellulose.
Hippocampal specimens from WT, APP/PS1, and AP5 mice stored in dry ice were sent to Beijing Genomics Institute (Wuhan, China), and the total RNA was extracted for RNA sequencing on BGISEQ-500 system. Moreover, the differentially expressed genes between APP/PS1 and AP5 were analyzed after RNA sequencing.

[2] = system: ThS-positive plaque; test: Thioflavin S staining of amyloid plaques, APP/PS1 mice; assay type: in vivo; conditions: cortex and hippocampus; AP5 40 mg/kg once daily 5 months
Experimental: as §1
The hemisphere slices were stained with 0.5% fluorescent amyloid dye Thioflavin S (ThS, T1892, Sigma Aldrich) in the dark for 10 min followed by three washes with 50% ethyl alcohol and a final wash in PBS. Image analysis of the number and size of cortical and hippocampal ThS positive plaques was carried out on Image J FIJI software with “analyze particles” function.

[3] = system: APPfl, CTFβ, BACE, PS1; test: Western blot of APP processing, APP/PS1 mice; assay type: in vivo; conditions: cortex and hippocampus, AP5-treated vs APP/PS1 mice
Experimental: as §1
Frozen hippocampus and cortex were homogenized in pre-cooling RIPA buffer (P0013B, Beyotime) supplemented with 1 mM phenylmethanesulfonyl fluoride (PMSF) and cocktail of protease and phosphatase inhibitors. […] The membranes were incubated with 5% fat-free milk blocking solution for 1 h at room temperature and then probed with primary antibodies overnight at 4°C. […] Densitometric analysis was performed using Quantity One software (Bio-Rad, Berkeley, CA, United States). […]
(§2) (1:100, BAF2655, R&D, Minneapolis, MN, USA). […] For the quantification of Aβ plaque-associated microglia and astrocyte, Iba1- and GFAP-immunopositive cells around plaques were counted. On each slide, ten plaques were randomly determined and the microglia (nuclei) in the immediate vicinity (two times the plaque diameter) of each plaque were counted. For colocalization of PSD95 and synaptophysin, images were analyzed with the puncta analyzer plugin with a minimum pixel specification of 4 in Image Jand thresholding was consistent for every image. […]

[4] = system: synaptophysin, PSD95; test: Synaptophysin and PSD95 co-immunofluorescence and western blot, hippocampus; assay type: in vivo, APP/PS1 mice
Experimental: as §1
(§3) The fixed hemibrains were paraffin-embedded and sectioned in the coronal plane. The slices were deparaffinized with xylene and rehydrated by a series of gradient alcohols. Antigen retrieval through microwave boiling was performed with 10 mM sodium citrate solution at pH 6.0. The slices were cooled down to room temperature and then rinsed in PBS solution. […]
Frozen hippocampus and cortex were homogenized in pre-cooling RIPA buffer (P0013B, Beyotime) supplemented with 1 mM phenylmethanesulfonyl fluoride (PMSF) and cocktail of protease and phosphatase inhibitors. […] Densitometric analysis was performed using Quantity One software (Bio-Rad, Berkeley, CA, United States).
Briefly, for ACh assay, the reactions were started by adding 100 µL of the Amplex Red reagent, HRP, choline oxidase, AChE working solution to each microplate well containing the controls and samples. […] Assay plates were incubated at room temperature for 30 min and protected from light, followed by detecting fluorescence of resorufin (λex = 544 nm, λem = 590 nm) in a fluorescence microplate reader. […]

[5] = system: Aβ plaque-associated microglia and astrocytes; test: Plaque-associated microglia and astrocytes (MOAB-2 with Iba1 or GFAP co-staining); assay type: in vivo, APP/PS1 mice
Experimental: as §1, §3, §2
anti-synaptophysin (1:1000, 67864-1-lg, Proteintech) overnight at 4°C. […] Densitometric analysis was performed using Quantity One software (Bio-Rad, Berkeley, CA, USA). […]

## CCN(C)C(=O)Oc1cccc(/C=C2\Cc3cc(OC)c(OC)cc3C2=O)c1 [AP5, (E)-3-((5,6-dimethoxy-1-oxo-1,3-dihydro-2H-inden-2-ylidene)-methyl)phenylethyl(methyl)carbamate]
[1]; hippocampus RNA-seq
  expression of genes linked to pan-reactive and A1 astrocytes: reduced the expression of most genes
[1]; hippocampus RNA-seq, among groups
  expression of signature genes of A2-specific astrocytes: No differences
[1]; hippocampus, AP5-treated vs untreated APP/PS1 mice
  DAM gene expression: increase in DAM gene expression
[2]
  load of ThS-positive plaque: pronounced reduction
  number of ThS-positive plaque: pronounced reduction
[3]
  expression levels of APPfl, CTFβ, BACE and presenilin 1: no significant changes
[4]; synaptophysin and PSD95 co-immunofluorescence, hippocampus CA3
  pre-, post- and double-positive synaptic puncta (synapse damage): markedly recovered
[4]; western blot, hippocampus
  expression levels of synaptophysin and PSD95: more than that in the APP/PS1 mice
[5]; MOAB-2 and GFAP co-staining
  number of astrocytes around Aβ plaque: no statistical difference
[5]; MOAB-2 and Iba1 co-staining
  plaque-associated microglia: increased clustering of microglia surrounding a plaque
